Laboratory results taken from US20260285857A1, “BICYCLIC AND HETEROCYCLIC AMIDE COMPOUNDS” (priority 2024, published 2026).

Test system: immunoglobulin light chain protein WIL-FL T46L
Assay: Differential scanning fluorimetry (thermal shift) assay
Type: binding
Conditions: temperature shift [Tm]compound-[Tm]vehicle, recombinant WIL-FL T46L

Row | SMILES | DSF (Table A) | DSF (Table B)
1 | Cc1cc(N2CC[C@](C)(c3ccccc3)C2)cn2nc(C(=O)NC3(CO)CCOCC3)nc12 [Compound 131] | ***** (>2.5° C.=*****) | 
2 | Cc1nc([C@H]2[C@@]3(CO)CO[C@]2(c2nc4c(C)cc(N5CC[C@](C)(c6ccccc6)C5)cn4n2)C3)n[nH]1 [Compound 580, ((1R,4S,5R)-5-(5-methyl-1H-1,2,4-triazol-3-yl)-1-(8-methyl-6-((R)-3-methyl-3-phenylpyrrolidin-1-yl)-[1,2,4]triazolo[1,5-a]pyridin-2-yl)-2-oxabicyclo[2.1.1]hexan-4-yl)methanol] |  | ***** (>2.5° C.=*****)
3 | Cc1cc(N2CC3(CC[C@H]3c3ccccc3)C2)cn2nc(C(=O)N3CC[C@@]4(CCN(c5cccc(C(=O)O)n5)C4)C3)nc12 [Compound 24A, Lithium 6-((R)-7-(8-methyl-6-((S)-5-phenyl-2-azaspiro[3.3]heptan-2-yl)-[1,2,4]triazolo[1,5-a]pyridine-2-carbonyl)-2,7-diazaspiro[4.4]nonan-2-yl)picolinate] | ***** (>2.5° C.=*****) | 
4 | Cc1cc(N2CC[C@](C)(c3ccccc3)C2)cn2nc(C(=O)N3CCC4(C3)CN(c3cccc(C(=O)O)n3)C(=O)O4)nc12 (some centres unmarked) [Compound 687] |  | ***** (>2.5° C.=*****)
5 | Cc1cc(N2CC[C@](C)(c3ccccc3)C2)cn2nc(C34CC(CO3)C4c3nc(NS(=O)(=O)C4COC(C(=O)O)C4)n[nH]3)nc12 (some centres unmarked) [Compound 568] |  | ***** (>2.5° C.=*****)
6 | Cc1cc(N2CC[C@](C)(c3ccccc3)C2)cn2nc(C(=O)NC3CN(c4cccc(C(=O)O)n4)C4(COC4)C3)nc12 (stereo partly drawn) [Compound 664, 6-[7-[[8-methyl-6-[(3R)-3-methyl-3-phenyl-pyrrolidin-1-yl]-[1,2,4]triazolo[1,5-a]pyridine-2-carbonyl]amino]-2-oxa-5-azaspiro[3.4]octan-5-yl]pyridine-2-carboxylic acid] |  | ***** (>2.5° C.=*****)
7 | Cc1cc(N2CC[C@](C)(c3ccccc3)C2)cn2nc(C(=O)NC34COC(C(=O)O)(C3)C4)nc12 [Compound 172] | ***** (>2.5° C.=*****) | 
8 | Cc1n[nH]c(C23CC(NC(=O)c4nc5c(C)cc(N6CC[C@](C)(c7ccccc7)C6)cn5n4)(CO2)C3)n1 [Compound 591, (R)-8-methyl-N-(1-(3-methyl-1H-1,2,4-triazol-5-yl)-2-oxabicyclo[2.1.1]hexan-4-yl)-6-(3-methyl-3-phenylpyrrolidin-1-yl)-[1,2,4]triazolo[1,5-a]pyridine-2-carboxamide] |  | ***** (>2.5° C.=*****)
9 | Cc1cc(N2CC[C@](C)(c3ccccc3)C2)cn2nc(C(=O)NC3C4CCC3NC4)nc12 (some centres unmarked) [Compound 201] | ***** (>2.5° C.=*****) | 
10 | Cc1cc(N2CC[C@](C)(c3ccccc3)C2)cn2nc(C34CC(CO3)C4N3CC4(CNC4)NC3=O)nc12 (some centres unmarked) [Compound 515] |  | ***** (>2.5° C.=*****)
11 | Cc1cc(N2CC[C@](C)(c3ccccc3)C2)cn2nc(C34CC(C(=O)N[C@@H]5COC[C@H]5O)(CO3)C4)nc12 [Compound 441] |  | ***** (>2.5° C.=*****)
12 | Cc1noc(C2(C)CCN(c3cc(C)c4nc(C(=O)N5C[C@@H]6CN(c7cccc(C(=O)O)n7)C[C@@H]6C5)nn4c3)C2)n1 (some centres unmarked) [Compound 300] | *** (>1-1.5° C.=***) | 
13 | Cc1cc(N2CC[C@](C)(c3ccccc3)C2)cn2nc(C(=O)NC3CCN(c4cccc(C(=O)O)c4)CC3)nc12 [Compound 273] | ***** (>2.5° C.=*****) | 
14 | Cc1cc(N2CC[C@](C)(c3ccccc3)C2)cn2nc(C34CC(CO3)C4c3nc(NC(=O)C4CC5(CC(C(=O)O)C5)C4)n[nH]3)nc12 (some centres unmarked) [Compound 560] |  | ***** (>2.5° C.=*****)
15 | Cc1cc(N2CC[C@](C)(c3ccccc3)C2)cn2nc(C(=O)NC3CNC(C)(C(=O)O)C3)nc12 (some centres unmarked) [Compound 179] | ***** (>2.5° C.=*****) | 
16 | Cc1cc(N2CCC(C)(C3CC4(CCC4)C3)C2)cn2nc(C(=O)N3C[C@@H]4CN(c5cccc(C(=O)O)n5)C[C@@H]4C3)nc12 (some centres unmarked) [Compound 296] | ** (>0.5-1 °C =**) | 
17 | Cc1cc(N2CC[C@](C)(c3ccccc3)C2)cn2nc(C(=O)N3CC4CC3CO4)nc12 (some centres unmarked) [Compound 124] | ***** (>2.5° C.=*****) | 
18 | Cc1cc(N2CC[C@](C)(c3ccccc3)C2)cn2nc(C34CC(=O)NC(N)(CO3)C4)nc12 (some centres unmarked) [Compound 47] | ***** (>2.5° C.=*****) | 
19 | Cc1cc(N2CC[C@](C)(c3ccccc3)C2)cn2nc(C34CC(CO3)C4Cn3cn[nH]c3=O)nc12 (some centres unmarked) [Compound 88] | ***** (>2.5° C.=*****) | 
20 | Cc1cc(N2CC[C@](C)(c3ccccc3)C2)cn2nc(C(=O)N[C@H]3CC[C@H](c4ccc(C(=O)O)c(F)c4)CC3)nc12 [Compound 225] | ***** (>2.5° C.=*****) | 
21 | Cc1cc(N2CC[C@](C)(c3ccccc3)C2)cn2nc(C(=O)NC3CCN(c4ncc(S(C)(=N)=O)cn4)C3)nc12 (some centres unmarked) [Compound 237] | ***** (>2.5° C.=*****) | 
22 | Cc1cc(N2CC[C@](C)(c3ccccc3)C2)cn2nc(C(=O)NC3CC4(CCC4N4CC5C(C4)C5C(=O)O)C3)nc12 (stereo partly drawn) [Compound 31, 3-[2-[[8-methyl-6-[(3R)-3-methyl-3-phenyl-pyrrolidin-1-yl]-[1,2,4]triazolo[1,5-a]pyridine-2-carbonyl]amino]spiro[3.3]heptan-7-yl]-3-azabicyclo[3.1.0]hexane-6-carboxylic acid] | ***** (>2.5° C.=*****) | 

Row | SMILES | DSF (Table A) | DSF (Table B)
23 | Cc1cc(N2CC[C@](C)(c3ccccc3)C2)cn2nc(C34CC(CNC(=O)CC(C)(C)O)(CO3)C4)nc12 [Compound 457, (R)-3-hydroxy-3-methyl-N-((1-(8-methyl-6-(3-methyl-3-phenylpyrrolidin-1-yl)-[1,2,4]triazolo[1,5-a]pyridin-2-yl)-2-oxabicyclo[2.1.1]hexan-4-yl)methyl)butanamide] |  | ***** (>2.5° C.=*****)
24 | COC(=O)NCC1C2COC1(c1nc3c(C)cc(N4CC[C@](C)(c5ccccc5)C4)cn3n1)C2 (some centres unmarked) [Compound 498] |  | ***** (>2.5° C.=*****)
25 | Cc1cc(N2CC[C@](C)(c3ccccc3)C2)cn2nc(C34CC(C#N)(CO3)C4)nc12 [Compound 464, (R)-1-(8-methyl-6-(3-methyl-3-phenylpyrrolidin-1-yl)-[1,2,4]triazolo[1,5-a]pyridin-2-yl)-2-oxabicyclo[2.1.1]hexane-4-carbonitrile] |  | ***** (>2.5° C.=*****)
26 | Cc1cc(N2CC[C@](C)(c3ccccc3)C2)cn2nc(C(=O)NC3CNCC3O)nc12 (some centres unmarked) [Compound 117] | ***** (>2.5° C.=*****) | 
27 | CNC(=O)C1C2COC1(c1nc3c(C)cc(N4CC[C@](C)(c5ccccc5)C4)cn3n1)C2 (some centres unmarked) [Example 72] | ***** (>2.5° C.=*****) | 
28 | Cc1cc(N2CC[C@](C)(c3ccccc3)C2)cn2nc(C34CC(N5CC6C(C5)C6C(=O)O)(CO3)C4)nc12 (some centres unmarked) [Compound 63] | ***** (>2.5° C.=*****) | 
29 | Cc1ncn(C2(C)CCN(c3cc(C)c4nc(C(=O)N5C[C@@H]6CN(c7cccc(C(=O)O)n7)C[C@@H]6C5)nn4c3)C2=O)n1 (stereo partly drawn) [Compound 25, 6-((3aR,6aS)-5-(8-methyl-6-(3-methyl-3-(3-methyl-1H-1,2,4-triazol-1-yl)-2-oxopyrrolidin-1-yl)-[1,2,4]triazolo[1,5-a]pyridine-2-carbonyl)hexahydropyrrolo[3,4-c]pyrrol-2(1H)-yl)picolinic acid] | * (0-0.5° C.=*) | 
30 | CNC(=O)c1nc2c(C)cc(N3CC[C@](c4ccccc4)(C(F)F)C3)cn2n1 [Compound 328] | **** (>1.5-2.5° C.=****) | 
31 | Cc1cc(N2CC[C@](C)(c3ccccc3)C2)cn2nc(C3OC4(CO)CC3(C(N)=O)C4)nc12 (some centres unmarked) [Compound 12] | ***** (>2.5° C.=*****) | 
32 | COC(C)(CC(=O)N1CC2(CC(NC(=O)c3nc4c(C)cc(N5CC[C@](C)(c6ccccc6)C5)cn4n3)C2)C1)C(=O)O (some centres unmarked) [Compound 679] |  | ***** (>2.5° C.=*****)
33 | Cc1cc(N2CC[C@](C)(c3ccccc3)C2)cn2nc(C(=O)NC3CC4(C3)CN(C3CC(C)(C(=O)O)C3)C4)nc12 (some centres unmarked) [Compound 371] | ***** (>2.5° C.=*****) | 
34 | CCC(=O)N1CCC(NC(=O)c2nc3c(C)cc(N4CC[C@](C)(c5ccccc5)C4)cn3n2)CC1 [Compound 188] | ***** (>2.5° C.=*****) | 
35 | Cc1cc(N2CCOC(C)(c3ccccc3)C2)cn2nc(C(=O)N3CC4CN(c5cccc(C(=O)O)n5)CC4C3)nc12 (centres unmarked) [Compound 432] | * (0-0.5° C.=*) | 
36 | Cc1cccc([C@@]2(C)CCN(c3cc(C)c4nc(C(=O)N5CC[C@@]6(CCN(c7cccc(C(=O)O)n7)C6)C5)nn4c3)C2)c1 [Compound 416] | ***** (>2.5° C.=*****) | 
37 | Cc1cc(N2CC[C@](C)(c3ccccc3)C2)cn2nc(C(=O)N3CCC4(CCN(c5ncn[nH]5)C4)C3)nc12 (some centres unmarked) [Compound 236] | ***** (>2.5° C.=*****) | 
38 | CNC(=O)c1cc2c(C)cc(N3CC[C@](C)(c4ccccc4)C3)cn2n1 [Compound 433] | ***** (>2.5° C.=*****) | 
39 | Cc1cc(N2CC[C@](C)(c3ccccc3)C2)cn2nc(C(=O)N3C[C@H]4C[C@@H]3C[C@H]4Oc3cccc(C(=O)O)n3)nc12 [Compound 280] | ***** (>2.5° C.=*****) | 
40 | CCC1(c2ccccc2)CN(c2cc(C)c3nc(C(=O)NC4CCN(c5cccc(C(=O)O)n5)CC4)nn3c2)C1 [Compound 390] | ***** (>2.5° C.=*****) | 
41 | Cc1cc(N2CC[C@](C)(c3ccccc3)C2)cn2nc(C34CC(CO3)C4NCC3(N)COC3)nc12 (stereo partly drawn) [Compound 510, N-[(3-aminooxetan-3-yl)methyl]-1-[8-methyl-6-[(3R)-3-methyl-3-phenyl-pyrrolidin-1-yl]-[1,2,4]triazolo[1,5-a]pyridin-2-yl]-2-oxabicyclo[2.1.1]hexan-5-amine] |  | ***** (>2.5° C.=*****)
42 | Cc1cc(N2CC[C@](C)(c3ccccc3)C2)cn2nc(C(=O)N3CCCN(c4ccc(C(=O)O)cn4)CC3)nc12 [Compound 694] |  | ***** (>2.5° C.=*****)
43 | CC(=O)Nc1n[nH]c(C2C3COC2(c2nc4c(C)cc(N5CC[C@](C)(c6ccccc6)C5)cn4n2)C3)n1 (stereo partly drawn) [Compound 10, N-[5-[1-[8-methyl-6-[(3R)-3-methyl-3-phenyl-pyrrolidin-1-yl]-[1,2,4]triazolo[1,5-a]pyridine-2-yl]-2-oxabicyclo[2.1.1]hexan-5-yl]-1H-1,2,4-triazol-3-yl]acetamide] | ***** (>2.5° C.=*****) | 
44 | Cc1cc(N2CC[C@](C)(c3ccccc3)C2)cn2nc(C(=O)NC3CCN(c4cccc(C(=O)O)n4)CC3)nc12 [Compound 276] | ***** (>2.5° C.=*****) | 
